Each block holds one molecule with its values, some of them ahead of it.
Tests used:
Myzus persicae = assay: Myzus test (MYZUPE spray treatment); type: in vivo; settings: for efficacy in %: application rate 500 g/ha, after 6 days; for inhibition at 20 g/ha / inhibition at 100 g/ha: Myzus persicae, 144 h
Method: Myzus test (Myzupe spray treatment)
After 6 days, the efficacy in % is determined.
Myzus Test (MYZUPE Spray Treatment)

Tetranychus urticae [1] = assay: Tetranychus test, OP-resistant (TETRUR spray treatment), bean leaf discs; type: in vivo; settings: for efficacy in %: application rate 500 g/ha, after 6 days
Method: Tetranychus Test, OP-Resistant (TETRUR Spray Treatment)
After a time of 6 days, the efficacy in % is determined.

Ctenocephalides felis = Ctenocephalides felis oral (CTECFE); type: in vivo; settings: for kill in % (effect): 100 ppm, after 2 days
Method: Ctenocephalides felis Oral (CTECFE)
Solvent: 1 part by weight of dimethyl sulphoxide
For the purpose of producing a suitable preparation of active compound, 10 mg of active compound are mixed with 0.5 ml of dimethyl sulphoxide. A portion of the concentrate is diluted with citrated cattle blood, and the desired concentration is prepared.
(§1) About 20 unfed adult fleas (Ctenocephalides felis) are placed into a chamber which is closed at the top and bottom with gauze. A metal cylinder whose bottom end is closed with parafilm is placed onto the chamber. The cylinder contains the blood/active compound preparation, which can be taken up by the fleas through the parafilm membrane. After 2 days, the kill in % is determined.
For the purpose of preparing an appropriate active compound formulation, 10 mg of active compound are mixed with 0.5 ml of dimethyl sulphoxide. A portion of the concentrate is diluted with citrated cattle blood, and the desired concentration is prepared.
as §1, with “membrane.” for “membrane. After 2 days, the kill in % is determined.”

Boophilus microplus = Boophilus microplus test (BOOPMI injection); type: in vivo; settings: for efficacy in % (laying of fertile eggs): 20 μg/animal, after 7 days; for % Activity dat: BOOPMI injection, 7 dat
Method: Boophilus microplus Test (BOOPMI Injection)
(§2) Solvent: dimethyl sulphoxide
The active compound solution is injected into the abdomen (Boophilus microplus), and the animals are transferred into dishes and stored in a climate-controlled room. The activity is assessed by laying of fertile eggs.
The active compound solution is injected into the abdomen (Boophilus microplus), and the animals are transferred into dishes and stored in a climate-controlled room.
The activity is assessed by laying of fertile eggs. 100% means that none of the ticks has laid any fertile eggs.

[2] = log P by HPLC, EEC Directive 79/831 Annex V.A8, method a); type: physicochemical; settings: for logP: cell marked a): HPLC
Method: (§3) ^a) Note regarding the determination of the log P values and mass detection The determination of the given log P values was carried out in accordance with EEC Directive 79/831 Annex V.A8 by HPLC (High Performance Liquid Chromatography) on a reversed-phase column (C18). Agilent 1100 LC system; 50*4.6 Zorbax Eclipse Plus C18 1.8 micron; mobile phase A: acetonitrile (0.1% formic acid); mobile phase B: water (0.09% formic acid); linear gradient from 10% acetonitrile to 95% acetonitrile in 4.25 min, then 95% acetonitrile for a further 1.25 min; oven temperature 55° C.; flow rate: 2.0 ml/min Mass detection is via an Agilend MSD system.
as §3, with “mass detection:” for “mass detection”, “2.0 ml/min.” for “2.0 ml/min”

Spodoptera frugiperda [3] = assay: Spodoptera frugiperda test (SPODFR spray treatment), maize leaf discs; type: in vivo; settings: for efficacy in %: application rate 500 g/ha, after 7 days
Description: Spodoptera frugiperda Test (SPODFR Spray Treatment)

Phaedon cochleariae [4] = assay: Phaedon test (PHAECO spray treatment), Chinese cabbage leaf discs; settings: for efficacy in %: application rate 500 g/ha, after 7 days
Phaedon cochleariae [5] = assay: Phaedon cochleariae spray test (PHAECO), cabbage leaves, ppm; type: in vivo; settings: 168 h, 7 dat
Description: Phaedon cochleariae Spray Test (PHAECO)
(§4) Solvent: 7 parts by weight of dimethylformamide
(§5) Emulsifier: 2 parts by weight of alkylaryl polyglycol ether
(§6) If the addition of ammonium salts or/and penetrants is required, these are in each case added in a concentration of 1000 ppm to the solution of the preparation.

Lucilia cuprina larvae = assay: Lucilia cuprina test (LUCICU); type: in vivo; settings: 100 ppm; after 2 days
Method: Lucilia cuprina Test (LUCICU)
as §2
Vessels containing horse meat treated with the active compound preparation of the desired concentration are populated with about 20 Lucilia cuprina larvae.
(§7) After 2 days, the kill in % is determined.

Nilaparvata lugens = Nilaparvata lugens spray test (NILALU); type: in vivo
Description: Nilaparvata lugens Spray Test (NILALU)
as §6

[6] = system: Boophilus microplus females of the SP-resistant Parkhurst strain; assay: Boophilus microplus test (DIP); type: in vivo; settings: for efficacy in % (laying of fertile eggs): after 7 days
Method: Boophilus microplus Test (DIP)
Test animals: adult engorged Boophilus microplus females of the SP-resistant Parkhurst strain
as §2
10 mg of active compound are dissolved in 0.5 ml of dimethyl sulphoxide. For the purpose of preparing a suitable formulation, the active compound solution is diluted with water to the concentration desired in each case.
This active compound preparation is pipetted into tubes. 8-10 ticks are transferred into a further tube with holes. The tube is immersed into the active compound formulation, and all ticks are completely wetted. After the liquid has rum off, the ticks are transferred to filter discs in plastic dishes and kept in a climatized room. The activity is assessed after 7 days by laying of fertile eggs. Eggs whose fertility is not outwardly visible are stored in glass tubes in a climate-controlled cabinet until the larvae hatch. An efficacy of 100% means that none of the ticks has laid any fertile eggs.
10 mg of active compound are dissolved in 0.5 ml of dimethyl sulphoxide. For the purpose of preparing a suitable formulation, the active compound solution is diluted with water to the concentration desired in each case (in ppm).
This active compound preparation is pipetted into tubes. 8-10 ticks are transferred into a further tube with holes. The tube is immersed into the active compound formulation, and all ticks are completely wetted. After the liquid has run out, the ticks are transferred onto filter discs in plastic dishes and stored in a climate-controlled room.
The activity is assessed after the desired time by laying of fertile eggs. Eggs whose fertility is not evident from the outside are kept in glass tubes in a climate-controlled cabinet until the larvae have hatched. An effect of 100% means that none of the ticks has laid any fertile eggs.

Musca domestica = Musca domestica test (MUSCDO); type: in vivo; settings: 100 ppm; after 2 days
Method: Musca domestica Test (MUSCDO)
as §2
Vessels containing a sponge treated with the active compound preparation of the desired concentration are populated with adult Musca domestica.
as §7
Vessels containing a sponge treated with the active compound formulation of the desired concentration are populated with adult Musca domestica.
After the desired period of time, the kill in % is determined.

Heliothis armigera = Heliothis armigera spray test (HELIAR); type: in vivo; settings: Helicoverpa armigera, 168 h, 20 ppm, 7 dat
Description: Heliothis armigera Spray Test (HELIAR)
as §4, §5, §6

[7] = system: Frankliniella occidentalis; assay: Frankliniella occidentalis spray test (FRANOC); type: in vivo; settings: 168 h, 20 g/ha, 7 dat
Description: Frankliniella occidentalis Spray Test (FRANOC)
as §6

Spodoptera frugiperda [8] = assay: Spodoptera frugiperda spray test (SPODFR), cotton leaves, ppm; type: in vivo; settings: 168 h, 7 dat
Description: Spodoptera frugiperda Spray Test (SPODFR)
as §4, §5, §6
Cotton leaves (Gossypium hirsutum) are sprayed with an active compound formulation of the desired concentration and populated with caterpillars of the armyworm (Spodoptera frugiperda).

Tetranychus urticae [9] = assay: Tetranychus urticae spray test, OP-resistant (TETRUR), bean plants, ppm; type: in vivo; settings: 168 h, 4 ppm, 7 dat
Description: Tetranychus urticae Spray Test, OP-Resistant (TETRUR)
as §4, §5, §6

[10] = Tetranychus urticae, foliar, 144 h, TETRUR, 6 dat
[11] = Ctenocephalides felis, po, 48 h, CTECFE, 2 dat
[12] = Rhipicephalus microplus, 168 h, BOOPMI DIP, 7 dat
[13] = reversed-phase C18, acetonitrile/water with formic acid, gradient 10% to 95% acetonitrile
[14] = Phaedon cochleariae, in Brassica rapa, foliar, 168 h, read-out: % Activity dat

chromatographic logP ([2]; reversed-phase C18 HPLC column; HPLC-MS method a), reversed-phase C18, acetonitrile/water with formic acid): 2.81
SMILES: CN(C(=O)c1c(C(F)(F)F)c(C(F)(F)F)nn1C)c1ccc(Cl)c(C(=O)NC2(C#N)CC2)c1 [Example 2, N-{4-Chloro-3-[(1-cyanocyclopropyl)carbamoyl]phenyl}-N,1-dimethyl-3,4-bis(trifluoromethyl)-1H-pyrazole-5-carboxamide]
efficacy in % (Myzus persicae): 100%
efficacy in % (Tetranychus urticae [1]): 100%
kill in % (effect) (Ctenocephalides felis): 100%
efficacy in % (laying of fertile eggs) (Boophilus microplus): 100%
efficacy in % (Spodoptera frugiperda [3]): 100%
efficacy in % (Phaedon cochleariae [4]): 100%

SMILES: CCN(C(=O)c1c(C(F)(F)F)c(C(F)(F)C(F)(F)F)nn1C)c1ccc(Cl)c(C(=O)NC2(C#N)CC2)c1 [Example 6]
inhibition at 0.8 ppm (Phaedon cochleariae [5]): 100%
inhibition at 20 g/ha (Myzus persicae; MYZUPE, 6 dat): 70%
efficacy in % (Myzus persicae): 100%
kill in % (efficacy) (Lucilia cuprina larvae): 100%
inhibition at 20 g/ha (Nilaparvata lugens; 168 h, 7 dat): 90%
inhibition at 20 g/ha (Tetranychus urticae [1]; [10]): 100%
efficacy in % (Tetranychus urticae [1]): 100%
kill in % (effect) (Ctenocephalides felis): 100%
inhibition at 0.8 ppm (Ctenocephalides felis; [11]): 80%
efficacy in % (laying of fertile eggs) (Boophilus microplus): 100%
% Activity dat (Boophilus microplus; 0.032 μg/animal): 70%
chromatographic logP ([2]; reversed-phase C18 HPLC column; cell marked a): HPLC, reversed-phase C18, acetonitrile/water with formic acid, gradient 10% to 95% acetonitrile): 3.36
efficacy in % (Spodoptera frugiperda [3]): 100%
efficacy in % (Phaedon cochleariae [4]): 100%
efficacy in % (laying of fertile eggs) ([6]; 100 ppm): 100%
inhibition at 20 ppm [6, 12]: 100%
kill in % (efficacy) (Musca domestica): 100%

SMILES: Cn1nc(C(F)(F)C(F)(F)F)c(C(F)(F)F)c1C(=O)Nc1ccc(Cl)c(C(=O)NC2(C#N)CCC2)c1 [Example 7]
kill in % (efficacy) (Lucilia cuprina larvae): 100%
efficacy in % (Tetranychus urticae [1]): 100%
kill in % (effect) (Ctenocephalides felis): 80%
efficacy in % (laying of fertile eggs) (Boophilus microplus): 100%
logP [2, 13]: 3.55 ^a)
efficacy in % (Spodoptera frugiperda [3]): 83%
efficacy in % (Phaedon cochleariae [4]): 100%
kill in % (efficacy) (Musca domestica): 100%

SMILES: Cn1nc(C(F)(F)F)c(C(F)(F)F)c1C(=O)Nc1ccc(Cl)c(C(=O)NC2(C#N)CC2)c1 [Example 9]
efficacy in % (Myzus persicae): 90%
kill in % (efficacy) (Lucilia cuprina larvae): 100%
efficacy in % (Tetranychus urticae [1]): 100%
kill in % (effect) (Ctenocephalides felis): 100%
efficacy in % (laying of fertile eggs) (Boophilus microplus): 100%
logP [2, 13]: 2.85 ^a)
efficacy in % (Spodoptera frugiperda [3]): 100%
efficacy in % (Phaedon cochleariae [4]): 100%
efficacy in % (laying of fertile eggs) ([6]; 100 ppm): 100%

SMILES: Cn1nc(C(F)(F)C(F)(F)F)c(C(F)(F)F)c1C(=O)Nc1ccc(Br)c(C(=O)NC2(C#N)CC2)c1 [Example 14]
inhibition at 4 ppm (Phaedon cochleariae [5]): 100%
% Activity dat (Myzus persicae; MYZUPE, 100 g/ha, 6 dat): 100 6 dat 100 6 dat %
inhibition at 100 g/ha (Myzus persicae; MYZUPE, 100 g/ha, 6 dat): 100%
inhibition at 500 g/ha (Nilaparvata lugens; 96 h, 4 dat): 80%
inhibition at 100 g/ha (Tetranychus urticae [1]; Tetranychus urticae, foliar, 144 h, TETRUR, 100 g/ha, 6 dat): 100%
chromatographic logP ([2]; reversed-phase HPLC column (C18); cell prints no method mark; Ex. 40 value equals the log P given under method a)): 3.31

SMILES: Cn1nc(C(F)(F)C(F)(F)F)c(C(F)(F)F)c1C(=O)Nc1ccc(Cl)c(C(=O)NC2CC2)c1 [Ik-1]
inhibition at 20 ppm (Heliothis armigera): 45%
inhibition at 20 g/ha [7]: 0%
inhibition at 20 ppm (Spodoptera frugiperda [8]): 20%
inhibition at 500 g/ha (Nilaparvata lugens; 168 h, 7 dat): 0%
inhibition at 0.8 ppm (Ctenocephalides felis; [11]): 0%
inhibition at 4 ppm (Tetranychus urticae [9]): 40%

SMILES: CCN(C(=O)c1c(C(F)(F)F)c(C(F)(F)C(F)(F)F)nn1C)c1ccc(Cl)c(C(=O)NC2CC2)c1 [Ik-136, reference compound]
inhibition at 0.8 ppm (Phaedon cochleariae [5]): 0%
inhibition at 20 g/ha (Myzus persicae; MYZUPE, 6 dat): 0%
inhibition at 20 g/ha (Nilaparvata lugens; 168 h, 7 dat): 0%
inhibition at 20 g/ha (Tetranychus urticae [1]; [10]): 0%
inhibition at 0.8 ppm (Ctenocephalides felis; [11]): 30%
% Activity dat (Boophilus microplus; 0.032 μg/animal): 0%
inhibition at 20 ppm [6, 12]: 0%

SMILES: Cn1nc(C(F)(F)C(F)(F)F)c(C(F)(F)F)c1C(=O)Nc1ccc(Br)c(C(=O)NC2CC2)c1 [Ik-175, reference compound]
inhibition at 4 ppm (Phaedon cochleariae [5]): 10%
inhibition at 100 g/ha (Myzus persicae; MYZUPE, 100 g/ha, 6 dat): 0%
inhibition at 500 g/ha (Nilaparvata lugens; 168 h, 7 dat): 0%

SMILES: C[C@H]1C[C@H]1NC(=O)c1cc(NC(=O)c2c(C(F)(F)F)c(C(F)(F)C(F)(F)F)nn2C)ccc1Cl [Ik-279, reference compound]
inhibition at 20 g/ha (Myzus persicae; MYZUPE, 6 dat): 0%
inhibition at 100 g/ha (Spodoptera frugiperda [3]; Spodoptera frugiperda, foliar, 168 h, SPODFR, 100 g/ha, 7 dat): 50%
inhibition at 20 g/ha (Phaedon cochleariae [4]; [14]): 0%
inhibition at 4 ppm (Tetranychus urticae [9]): 0%

SMILES: CCC1CC1NC(=O)c1cc(NC(=O)c2c(C(F)(F)F)c(C(F)(F)C(F)(F)F)nn2C)ccc1Cl (stereo not drawn) [Ik-286, reference compound]
inhibition at 20 g/ha (Myzus persicae; MYZUPE, 6 dat): 0%
inhibition at 4 ppm (Ctenocephalides felis; Ctenocephalides felis, po, 48 h, CTECFE, 4 ppm, 2 dat): 0%
% Activity dat (Boophilus microplus; 0.16 μg/animal): 20%
inhibition at 100 g/ha (Phaedon cochleariae [4]; [14]): 0%
inhibition at 100 ppm ([6]; Rhipicephalus microplus, 168 h, BOOPMI DIP, 100 ppm, 7 dat): 40%

— patent publication US9126945B2, “N-(3-carbamoylphenly)-1H-pyrazole-5-carboxamide derivatives and the use thereof for controlling animal pests” (BAYER INTELLECTUAL PROPERTY GMBH, priority 2011, dated 2015)
